Tested on: dextran sodium sulfate-induced ulcerative colitis in rats
Assay: Drug efficacy on dextran sodium sulfate-induced ulcerative colitis in rats (erosion area of the large intestinal mucosa)
Type: in vivo, rat
Settings: for erosion area / inhibition rate (erosion area): 14 days; for erosion area: DSS colitis rats, mean±standard error, control 330.3±15.4; for inhibition rate (erosion area): vs control group
Description: The test of drug efficacy of a TAFIa inhibitor on dextran sodium sulfate-induced ulcerative colitis in rats will be described below. This test was conducted by commissioning to NISSEI BILIS Co., Ltd.
A TAFIa inhibitor, (2S)-5-amino-2-{[1-(trans-4-methylcyclohexyl)-1H-imidazol-4-yl]methyl}valeric acid p-toluenesulfonate anhydride (hereinafter referred to as “compound A”) was dissolved in a 0.5% aqueous sodium carboxymethylcellulose solution (hereinafter referred to as “CMC-Na”) to prepare a dosing solution for oral administration of 0.6, 2, 6 and 20 mg/mL. The dosage was determined by conversion into a free form with a conversion factor of 0.6301. The chemical structure of compound A is as follows: […]
7-Week old male LEW/SsN Slc rats (Japan SLC, Inc.) were allowed to drink 3% dextran sodium sulfate (hereinafter referred to as “DSS”) freely to create ulcerative colitis models. Individuals meeting selection criteria for model animals shown in 1-3 below were selected followed by switching to free drinking of 1% aqueous DSS solution to maintain the ulcerative colitis models.
Thereafter, animals that met the selection criteria were selected.
The tests were conducted in two separate groups (the first half: 5 animals/group; the second half: 5 animals/group). The untreated individuals and the individuals meeting the above selection criteria were selected as adopted animals, and grouped into groups of 5 animals/group with the body weight as a main parameter and the hemoglobin concentration as a secondary parameter, according to stratified randomized assignment so as not to cause a difference in the average value among the groups (the total of two tests: 10 animals/group).
Administration route: Oral administration
Administration volume: 5 mL/kg
[…] Administration was conducted by masking the test groups (that is, individual identification numbers were recorded in the animal cards, and administration was conducted in a blinded manner). Note that the administration on the selection day (the first day of administration) was conducted only once in the afternoon.
Each of animals was fasted from the end of the final administration. On the day of dissection, approximately 3 mL of blood was collected from the abdominal aorta under anesthesia with pentobarbital sodium (30 mg/kg, i.p.) by using a polypropylene disposable syringe and an injection needle. Immediately after blood collection, the large intestine (the colon and the rectum) was isolated and immersed in physiological saline kept warm at approximately 37° C., and the length of the large intestine was measured in a relaxed state. Thereafter, a 10% neutral buffered formalin solution was infused into the large intestine, and the large intestine was immersed in physiological saline with the lumen expanded and temporarily fixed for 1 hour or more. After temporary fixation, the large intestine was dissected along the mesentery attachment site, immersed in a stretched state in a 10% neutral buffered formalin solution, and fixed for 1 week or more. The fixed large intestine specimen was washed with running water for approximately 5 minutes, further with distilled water three times, and then immersed in a 3% aqueous acetic acid solution for approximately 5 minutes as a pretreatment.
The large intestine specimen stained with a 1% Alcian blue solution was photographed. The photograph was captured on an image analysis device (general-purpose image processor WinROOF, Version 5.7, MITANI CORPORATION), and the area of deep blue part was measured. This measurement value was used as the erosion area.
The erosion area was expressed as mean±standard error. A significant difference test between the control group and each group was conducted by a homoscedasticity test (F-test) followed by Student's t test in the case of homoscedasticity and by Aspin-Welch's t test in the case of heteroscedasticity (significance level: 5%).

SMILES	erosion area (300 mg/kg orally once a day)	inhibition rate (erosion area) (300 mg/kg orally once a day)	erosion area compared to the control group (significance) (300 mg/kg orally once a day, Student's t test P<0.05)	erosion area compared to the control group (significance) (3 mg/kg orally twice a day)	erosion area (3 mg/kg orally twice a day)	inhibition rate (erosion area) (3 mg/kg orally twice a day)	erosion area (10 mg/kg orally twice a day)	inhibition rate (erosion area) (10 mg/kg orally twice a day)	erosion area compared to the control group (significance) (10 mg/kg orally twice a day, Student's t test P<0.05)	erosion area (30 mg/kg orally once a day)	inhibition rate (erosion area) (30 mg/kg orally once a day)	erosion area compared to the control group (significance) (30 mg/kg orally once a day, Student's t test P<0.01)	erosion area (30 mg/kg orally twice a day)	inhibition rate (erosion area) (30 mg/kg orally twice a day)	erosion area compared to the control group (significance) (30 mg/kg orally twice a day, Student's t test P<0.01)	erosion area (100 mg/kg orally twice a day)	inhibition rate (erosion area) (100 mg/kg orally twice a day)	erosion area compared to the control group (significance) (100 mg/kg orally twice a day, Student's t test P<0.01)	reduction effect of the erosion area (overall conclusion) (rat ulcerative colitis model)
O=C(O)c1cc(/N=N/c2ccc(S(=O)(=O)Nc3ccccn3)cc2)ccc1O [SASP, Salazosulfapyridine, reference compound]	261.6±22.7 mm^2	20.8%	significant reduction in the erosion area	–	–	–	–	–	–	–	–	–	–	–	–	–	–	–	–
C[C@H]1CC[C@H](n2cnc(C[C@H](CCCN)C(=O)O)c2)CC1.Cc1ccc(S(=O)(=O)O)cc1 [compound A, (2S)-5-amino-2-{[1-(trans-4-methylcyclohexyl)-1H-imidazol-4-yl]methyl}valeric acid p-toluenesulfonate anhydride]	–	–	–	No significant difference	291.8±13.1 mm^2	11.7%	281.6±11.1 mm^2	14.7%	significant reduction in the erosion area	264.0±7.9 mm^2	20.1%	significant reduction in the erosion area	262.89±13.9 mm^2	20.4%	significant reduction in the erosion area	261.9±12.7 mm^2	20.7%	significant reduction in the erosion area	significant reduction effect of the erosion area
